Experimental data as given in patent publication US4975455A, “New heteroarotinoid compounds” (Adir et Cie, priority 1988, dated 1990).
Read-outs that look alike come from different tables or passages of the source.

Tests used:
[1] = test system: L1210 line (mouse leukemic line); experiment: Inhibition of growth of L1210 line (tritiated thymidine incorporation, 48 hours); type: cell-based; settings: L1210 cells, read-out: IC50 (50% growth inhibition)
Experimental: The growth of this mouse leukemic line is assessed by the capacity of the cells to incorporate tritiated thymidine. The degree of incorporation is measured 48 hours after the introduction of the test compounds into the culture medium.

humeri of rat fetuses = experiment: Toxicity on the humeri of rat fetuses explanted in vitro (proteoglycan release); type: cell-based; settings: 7 days of culture in vitro, in words
Experimental: EXAMPLE 37: STUDY OF THE TOXICITY ON THE HUMERI OF RAT FETUSES OF GESTATIONAL AGE 21 DAYS
The toxicity of retinoids can be evaluated on humeri of rat fetuses of gestational age 21 days.
The toxicity of retinoids can be evaluated on humeri of rat fetuses explanted in vitro as described by KISTLER.
Retinoid activity results in a release of proteoglycans from the bony substance. This release is assessed after 7 days of culture in vitro by assaying the concentration of proteoglycans in the medium, by the method of WITHEMAN (1973).

[2] = in vivo
Excerpt: (§1) This can be reproduced experimentally in animals.
(§2) The selected treatment protocol is a daily injection for five days, repeated a second time after an interval of two days.

[3] = Detection of an excess-vitamin A type toxicity in vivo
Excerpt: as §1, §2

[4] = daily injection for five days, repeated after two days interval

Row | IC50 [1] [µM] | SMILES | other results
1 | 3.8 | CCS(=O)(=O)c1ccc(/C=C(\C)C2=Cc3ccccc3OC2)cc1 [Example 16, ethyl 4-[2-(2H-chromen-3-yl)propenyl]phenyl sulfone] | 
2 | 25 | COC(=O)c1ccc(/C=C(\C)C2=Cc3cc(Cl)cc(Cl)c3OC2)cc1 [Example 8] | toxicity on the humeri (humeri of rat fetuses): complete absence of toxicity
3 | 7.5 | CCS(=O)(=O)c1ccc(C=C(C)C2=Cc3cc(Cl)cc(C)c3OC2)cc1 [Example 17] | 
4 | 3.8 | CCNC(=O)c1ccc(/C=C(\C)C2=Cc3ccccc3OC2)cc1 [Example 13, N-ethyl-4-[2-(2H-chromen-3-yl)propenyl]benzamide] | 
5 |  | CC1=C(/C=C/C(C)=C/C=C/C(C)=C/C(=O)O)C(C)(C)CCC1 [retinoic acid] | alopecia [2]: appearance of alopecia; weight [2]: rapid weight loss
6 | 25 | COC(=O)c1ccc(/C=C(\C)C2=Cc3ccccc3OC2)cc1 [Example 6, methyl 4-[2-(2H-chromen-3-yl)propenyl]benzoate] | 
7 | 20 | CC(=Cc1ccccc1)C1=Cc2cc(Cl)cc(C)c2OC1 [Example 3] | 
8 | 18 | CCOC(=O)c1ccc(/C=C(\C)C2=Cc3ccccc3OC2)cc1 [Example 10, ethyl 4-[2-(2H-chromen-3-yl)propenyl]benzoate] | 
9 | 8 | CCS(=O)(=O)c1ccc(/C=C(\C)C2=Cc3cc(OC)ccc3OC2)cc1 [Example 24, ethyl 4-[2-(6-methoxy-2H-chromen-3-yl)propenyl]phenyl sulfone] | 
10 | 6 | CCS(=O)(=O)c1ccc(C=C(C)C2=Cc3cc(C)cc(C)c3OC2)cc1 [Example 18] | 
11 | < 1 | CC(=Cc1ccccc1)C1=Cc2ccccc2OC1 [Example 1, 3-(1-PHENYLPROPEN-2-YL)-2H-CHROMENE] | 

Row | SMILES | IC50 [1] [µM] | other results
12 | CCOC(=O)/C=C(C)/C=C/C=C(C)/C=C/c1c(C)cc(OC)c(C)c1C [Etretinate, etretinate] | 80 | alopecia [3, 4]: appearance of alopecia; fracture / bone weakening (radiography) [3, 4]: bone weakening; weight [3, 4]: rapid weight loss; excess-vitamin A type toxicity ([3]; overall, in words): rapid weight loss, alopecia and bone weakening
